Assays:
Format in all cases: cell-based
Conditions in all cases: 24 h incubation, visual reading
[1] = system: Streptococcus pneumoniae MDR ATCC 700677; assay: MIC assay, S. pneumoniae MDR ATCC 700677
Protocol: (§1) Antimicrobial activity of compounds was tested against a number of bacterial strains, including Staphylococcus aureus (MRSA ATCC 43300, GISA NRS17, VISA NRS1, MRSA clinical isolate, daptomycin resistant clinical isolate), Streptococcus pneumoniae (MDR ATCC 700677), Enterococcus faecalis (VanA clinical isolate) and Enterococcus faecium (MDR Van A ATCC 51559).
(§2) All compounds were prepared to 160 μg/ml solution in water from a stock solution of 1 mM concentration.
(§3) The compounds, along with standard antibiotics were serially diluted twofold across the wells of 96-well non-binding surface plates (NBS, Corning). Standards ranged from 64 μg/ml to 0.03 μg/ml and compounds from 8 μg/ml to 0.003 μg/ml with final volumes of 50 μL per well. Gram positive bacteria were cultured in Muller Hinton broth (MHB) (Bacto laboratories, Cat. no. 211443) at 37° C. overnight. A sample of each culture was then diluted 40-fold in fresh MHB broth and incubated at 37° C. for 2-3 hrs. The resultant mid-log phase cultures were diluted to the final concentration of 5×10e5 CFU/mL, then 50 μL was added to each well of the compound-containing 96-well plates. All the plates were covered and incubated at 37° C. for 24 h. MICs were the lowest concentration showing no visible growth.
(§4) MICs were determined visually at 24 hr incubation and the MIC was defined as the lowest concentration with which no growth was visible after incubation. Both MIC and MBC were determined by visual inspection only.

[2] = system: Staphylococcus aureus MRSA ATCC 43300; assay: MIC assay, S. aureus MRSA ATCC 43300
Protocol: as §1, §2, §3, §4

[3] = system: Enterococcus faecium MDR Van A ATCC 51559; assay: MIC assay, E. faecium MDR Van A ATCC 51559
Protocol: as §1, §2, §3, §4

Row | Minimum Inhibitory Concentration (MIC) S. pneumoniae ATCC 700677 [1] | Minimum Inhibitory Concentration (MIC) Staph. aureus ATCC43300 [2] | Minimum Inhibitory Concentration (MIC) E. faecium ATCC51559 [3] | Compound
1 | xxxx (xxxx = 0.01-<0.1) | xxxx (xxxx = 0.01-<0.1) | x (x = >4) | CCCCCCCCCCC(=O)NCC(=O)N[C@@H](CCCCN)C(=O)N[C@@H](CCCCN)C(=O)N[C@@H](CCCCN)C(=O)N[C@@H](CCCCNC(=O)[C@H]1NC(=O)[C@H]2NC(=O)[C@H](NC(=O)[C@@H]3NC(=O)[C@H](CC(N)=O)NC(=O)[C@H](NC(=O)[C@@H](CC(C)C)NC)[C@H](O)c4ccc(c(Cl)c4)Oc4cc3cc(c4O[C@@H]3O[C@H](CO)[C@@H](O)[C@H](O)[C@H]3O[C@H]3C[C@](C)(N)[C@H](O)[C@H](C)O3)Oc3ccc(cc3Cl)[C@H]2O)c2ccc(O)c(c2)-c2c(O)cc(O)cc21)C(=O)O [MCC_000346]
2 | xxxxx (xxxxx = <0.01) | xxxxx (xxxxx = <0.01) | xxx (xxx = 0.1-<1) | CCCCCCCCCCCC(=O)N[C@@H](CCCCN)C(=O)N[C@@H](CCCCN)C(=O)N[C@@H](CCCCN)C(=O)N[C@@H](CCCCNC(=O)[C@H]1NC(=O)[C@H]2NC(=O)[C@H](NC(=O)[C@@H]3NC(=O)[C@H](CC(N)=O)NC(=O)[C@H](NC(=O)[C@@H](CC(C)C)NC)[C@H](O)c4ccc(c(Cl)c4)Oc4cc3cc(c4O[C@@H]3O[C@H](CO)[C@@H](O)[C@H](O)[C@H]3O[C@H]3C[C@](C)(N)[C@H](O)[C@H](C)O3)Oc3ccc(cc3Cl)[C@H]2O)c2ccc(O)c(c2)-c2c(O)cc(O)cc21)C(=O)O [MCC_000348]
3 | xxxxx (xxxxx = <0.01) | xxxxx (xxxxx = <0.01) | xxx (xxx = 0.1-<1) | CCCCCCCCCCCCC(=O)N[C@@H](CCCCN)C(=O)N[C@@H](CCCCN)C(=O)N[C@@H](CCCCNC(=O)[C@H]1NC(=O)[C@H]2NC(=O)[C@H](NC(=O)[C@@H]3NC(=O)[C@H](CC(N)=O)NC(=O)[C@H](NC(=O)[C@@H](CC(C)C)NC)[C@H](O)c4ccc(c(Cl)c4)Oc4cc3cc(c4O[C@@H]3O[C@H](CO)[C@@H](O)[C@H](O)[C@H]3O[C@H]3C[C@](C)(N)[C@H](O)[C@H](C)O3)Oc3ccc(cc3Cl)[C@H]2O)c2ccc(O)c(c2)-c2c(O)cc(O)cc21)C(=O)O [MCC_000349]
4 | xxxxx (xxxxx = <0.01) | xxxxx (xxxxx = <0.01) | xxx (xxx = 0.1-<1) | CCCCCCCCCCCCC(=O)N[C@@H](CCCCN)C(=O)N[C@@H](CCCCN)C(=O)N[C@@H](CCCCN)C(=O)N[C@@H](CCCCNC(=O)[C@H]1NC(=O)[C@H]2NC(=O)[C@H](NC(=O)[C@@H]3NC(=O)[C@H](CC(N)=O)NC(=O)[C@H](NC(=O)[C@@H](CC(C)C)NC)[C@H](O)c4ccc(c(Cl)c4)Oc4cc3cc(c4O[C@@H]3O[C@H](CO)[C@@H](O)[C@H](O)[C@H]3O[C@H]3C[C@](C)(N)[C@H](O)[C@H](C)O3)Oc3ccc(cc3Cl)[C@H]2O)c2ccc(O)c(c2)-c2c(O)cc(O)cc21)C(=O)O [MCC_000350]
5 | xx (xx = 1-4) | xxx (xxx = 0.1-<1) | x (x = >4) | CNC(CC(C)C)C(=O)NC1C(=O)NC(CC(N)=O)C(=O)NC2C(=O)NC3C(=O)NC(C(=O)NC(C(=O)NCCCCC(NC(=O)C(CCCCN)NC(=O)C(CCCCN)NC(=O)CNC(=O)c4ccc(Oc5ccccc5)cc4)C(=O)O)c4cc(O)cc(O)c4-c4cc3ccc4O)C(O)c3ccc(c(Cl)c3)Oc3cc2cc(c3OC2OC(CO)C(O)C(O)C2OC2CC(C)(N)C(O)C(C)O2)Oc2ccc(cc2Cl)C1O (stereo not drawn) [MCC_000381]
6 | xxx (xxx = 0.1-<1) | xx (xx = 1-4) | x (x = >4) | CCCCCCCC(=O)NC(CCCCN)C(=O)NC(CCCCN)C(=O)NC(CCCCNC(=O)C1NC(=O)C2NC(=O)C(NC(=O)C3NC(=O)C(CC(N)=O)NC(=O)C(NC(=O)C(CC(C)C)NC)C(O)c4ccc(c(Cl)c4)Oc4cc3cc(c4OC3OC(CO)C(O)C(O)C3OC3CC(C)(N)C(O)C(C)O3)Oc3ccc(cc3Cl)C2O)c2ccc(O)c(c2)-c2c(O)cc(O)cc21)C(=O)NC (stereo not drawn) [MCC_000489]
7 | xxxxx (xxxxx = <0.01) | xxxx (xxxx = 0.01-<0.1) | x (x = >4) | CCCCCCCC(=O)NCCCCC(NC(=O)CCCCCCC)C(=O)NC(CCCCN)C(=O)NC(CCCCNC(=O)C1NC(=O)C2NC(=O)C(NC(=O)C3NC(=O)C(CC(N)=O)NC(=O)C(NC(=O)C(CC(C)C)NC)C(O)c4ccc(c(Cl)c4)Oc4cc3cc(c4OC3OC(CO)C(O)C(O)C3OC3CC(C)(N)C(O)C(C)O3)Oc3ccc(cc3Cl)C2O)c2ccc(O)c(c2)-c2c(O)cc(O)cc21)C(=O)NC (stereo not drawn) [MCC_000490]
8 | xxx (xxx = 0.1-<1) | xxx (xxx = 0.1-<1) | x (x = >4) | CCCCCCCCC(=O)NC(CCCCN)C(=O)NC(CCCCN)C(=O)NC(CCCCNC(=O)C1NC(=O)C2NC(=O)C(NC(=O)C3NC(=O)C(CC(N)=O)NC(=O)C(NC(=O)C(CC(C)C)NC)C(O)c4ccc(c(Cl)c4)Oc4cc3cc(c4OC3OC(CO)C(O)C(O)C3OC3CC(C)(N)C(O)C(C)O3)Oc3ccc(cc3Cl)C2O)c2ccc(O)c(c2)-c2c(O)cc(O)cc21)C(=O)NC (stereo not drawn) [MCC_000491]
9 | xxxxxx | xxxxx (xxxxx = <0.01) | x (x = >4) | CCCCCCCCCC(=O)NC(CCCCN)C(=O)NC(CCCCN)C(=O)NC(CCCCNC(=O)C1NC(=O)C2NC(=O)C(NC(=O)C3NC(=O)C(CC(N)=O)NC(=O)C(NC(=O)C(CC(C)C)NC)C(O)c4ccc(c(Cl)c4)Oc4cc3cc(c4OC3OC(CO)C(O)C(O)C3OC3CC(C)(N)C(O)C(C)O3)Oc3ccc(cc3Cl)C2O)c2ccc(O)c(c2)-c2c(O)cc(O)cc21)C(=O)NC (stereo not drawn) [MCC_000492]
10 | xxxxx (xxxxx = <0.01) | xxxxx (xxxxx = <0.01) | xx (xx = 1-4) | CCCCCCCCCCCC(=O)NC(CCCCN)C(=O)NC(CCCCN)C(=O)NC(CCCCNC(=O)C1NC(=O)C2NC(=O)C(NC(=O)C3NC(=O)C(CC(N)=O)NC(=O)C(NC(=O)C(CC(C)C)NC)C(O)c4ccc(c(Cl)c4)Oc4cc3cc(c4OC3OC(CO)C(O)C(O)C3OC3CC(C)(N)C(O)C(C)O3)Oc3ccc(cc3Cl)C2O)c2ccc(O)c(c2)-c2c(O)cc(O)cc21)C(=O)NC (stereo not drawn) [MCC_000493]
11 | xxxxx (xxxxx = <0.01) | xxxxx (xxxxx = <0.01) | xx (xx = 1-4) | CCCCCCCCCCCCC(=O)NC(CCCCN)C(=O)NC(CCCCN)C(=O)NC(CCCCNC(=O)C1NC(=O)C2NC(=O)C(NC(=O)C3NC(=O)C(CC(N)=O)NC(=O)C(NC(=O)C(CC(C)C)NC)C(O)c4ccc(c(Cl)c4)Oc4cc3cc(c4OC3OC(CO)C(O)C(O)C3OC3CC(C)(N)C(O)C(C)O3)Oc3ccc(cc3Cl)C2O)c2ccc(O)c(c2)-c2c(O)cc(O)cc21)C(=O)NC (stereo not drawn) [MCC_000494]
12 | xxxxx (xxxxx = <0.01) | xxxx (xxxx = 0.01-<0.1) | xxx (xxx = 0.1-<1) | CCCCCCCCCCCCCCC(=O)NC(CCCCN)C(=O)NC(CCCCN)C(=O)NC(CCCCNC(=O)C1NC(=O)C2NC(=O)C(NC(=O)C3NC(=O)C(CC(N)=O)NC(=O)C(NC(=O)C(CC(C)C)NC)C(O)c4ccc(c(Cl)c4)Oc4cc3cc(c4OC3OC(CO)C(O)C(O)C3OC3CC(C)(N)C(O)C(C)O3)Oc3ccc(cc3Cl)C2O)c2ccc(O)c(c2)-c2c(O)cc(O)cc21)C(=O)NC (stereo not drawn) [MCC_000495]
13 | xxx (xxx = 0.1-<1) | xxxx (xxxx = 0.01-<0.1) | x (x = >4) | CCCCCCC(CCCC)C(=O)NC(CCCCN)C(=O)NC(CCCCN)C(=O)NC(CCCCNC(=O)C1NC(=O)C2NC(=O)C(NC(=O)C3NC(=O)C(CC(N)=O)NC(=O)C(NC(=O)C(CC(C)C)NC)C(O)c4ccc(c(Cl)c4)Oc4cc3cc(c4OC3OC(CO)C(O)C(O)C3OC3CC(C)(N)C(O)C(C)O3)Oc3ccc(cc3Cl)C2O)c2ccc(O)c(c2)-c2c(O)cc(O)cc21)C(=O)NC (stereo not drawn) [MCC_000496]
14 | xxx (xxx = 0.1-<1) | xxx (xxx = 0.1-<1) | xxx (xxx = 0.1-<1) | CCCCCCC(CCCC)C(=O)NCCCCC(NC(=O)C(CCCC)CCCCCC)C(=O)NC(CCCCN)C(=O)NC(CCCCNC(=O)C1NC(=O)C2NC(=O)C(NC(=O)C3NC(=O)C(CC(N)=O)NC(=O)C(NC(=O)C(CC(C)C)NC)C(O)c4ccc(c(Cl)c4)Oc4cc3cc(c4OC3OC(CO)C(O)C(O)C3OC3CC(C)(N)C(O)C(C)O3)Oc3ccc(cc3Cl)C2O)c2ccc(O)c(c2)-c2c(O)cc(O)cc21)C(=O)NC (stereo not drawn) [MCC_000497]

From patent publication US10947271B2, “Antibacterial agents” (THE UNIVERSITY OF QUEENSLAND, priority 2014, dated 2021)
